≈ marks a conversion by molar mass, not a printed value. Calls of active or inactive are those of the source. How the calls were made is not given here.
test system: aqueous solubility in 1x PBS; assay: compound solubility in 1x PBS – biophysical, set 2, ADME assay (AID 624321); settings: at 100 µM; stronger effect = higher value

SMILES	solubility
Brc1ccc2c(c1)CN1CCCC1=N2	> 25 µg/mL
COC(=O)c1ccccc1NC(=O)c1ccc(F)cc1	0.94 µg/mL (inactive) (≈ 3.44 µM)
CCCc1cc(C(=O)N(C2CCCCC2)C2CCCCC2)no1	1.5 µg/mL (inactive) (≈ 4.71 µM)
CN(C)c1nc(N)nc(CSc2nnnn2-c2cccc3ccccc23)n1	0.65 µg/mL (inactive) (≈ 1.71 µM)
CCCN1CNc2c(c(=O)[nH]c(=S)n2CCc2ccc(OC)c(OC)c2)C1	> 39 µg/mL
CCN1CCN(c2nc3ccccc3nc2C(C#N)C(=O)OC2CCCCC2)CC1 (centres undefined)	24.3 µg/mL (≈ 59.6 µM)
O=C(COC(=O)C12CC3CC(CC(C3)C1)C2)NCc1ccco1	< 0.01 µg/mL (inactive)
N#C/C(=C\c1ccc([N+](=O)[O-])o1)c1nc2ccccc2[nH]1	0.17 µg/mL (inactive) (≈ 0.607 µM)
Cc1ccc(C(=O)n2c3ccccc3c3ccccc32)cc1	0.03 µg/mL (inactive) (≈ 0.105 µM)
c1ccc(-c2nnc(N3CCOCC3)nc2-c2ccccc2)cc1	2.1 µg/mL (inactive) (≈ 6.6 µM)
O=C(O)CCC(NS(=O)(=O)c1ccc(-c2ccccc2)cc1)C(=O)O (centres undefined)	> 36 µg/mL
CCCOc1ccc(-c2nc(OC)c3ccccc3n2)cc1	< 0.01 µg/mL (inactive)
Cc1cc(C(=O)CN2C(=O)CCC2=O)c(C)n1Cc1ccccc1	17.8 µg/mL (≈ 54.9 µM)
CSc1nc(-c2ccc(C)cc2)nc(C(Cl)Cl)n1	0.07 µg/mL (inactive) (≈ 0.233 µM)
Cn1nnnc1Sc1ncnc2scc(-c3ccccc3)c12	2.4 µg/mL (inactive) (≈ 7.35 µM)
c1ccc2c(Nc3nnc(-c4ccncc4)s3)cccc2c1	2.7 µg/mL (inactive) (≈ 8.87 µM)
COc1ccc(S(=O)(=O)N2CCN(S(=O)(=O)c3ccc4c(c3)OCCO4)CC2)cc1	0.26 µg/mL (inactive) (≈ 0.572 µM)
C/C=C/Cn1c(SCCCc2ccccc2)nc2c1c(=O)[nH]c(=O)n2C	0.19 µg/mL (inactive) (≈ 0.513 µM)
Cn1cnc([N+](=O)[O-])c1Sc1ncnc2nc[nH]c12	> 27 µg/mL
O=c1[nH]c2c(s1)C(c1cccnc1)C1C3CCC(C3)C1S2 (centres undefined)	> 31 µg/mL
NC(=O)C1CCN(c2nc(-c3ccc(Br)cc3)cs2)CC1	0.14 µg/mL (inactive) (≈ 0.382 µM)
COc1nc(-c2ccccc2)nnc1-c1ccccc1	0.18 µg/mL (inactive) (≈ 0.684 µM)
O=S(=O)(NC1CCCCC1N1CCOCC1)c1ccc(Cl)cc1 (centres undefined)	> 36 µg/mL

SMILES	solubility
CCc1nnc(NC(=O)c2ccc(NS(=O)(=O)c3ccccc3)cc2)s1	1.3 µg/mL (inactive) (≈ 3.35 µM)
CCOC(=O)C(C)Oc1cccc2c(=O)n(CC(=O)Nc3ccc4c(c3)OCCO4)ccc12 (centres undefined)	0.35 µg/mL (inactive) (≈ 0.774 µM)
COc1ccc(N(C(=O)CCl)C(C(=O)NCCc2ccccc2)c2cccs2)cc1Cl (centres undefined)	0.51 µg/mL (inactive) (≈ 1.07 µM)
CC[C@H]1CN2CCc3cc(OC)c(OC)cc3[C@@H]2C[C@@H]1C[C@H]1NCCc2cc(OC)c(OC)cc21	> 55 µg/mL
Cc1cc(-c2nnc3n2CCCCC3)c(C)n1-c1ccccc1	> 30 µg/mL
COc1ccccc1N(/N=C1\Sc2ccccc2C1=O)C(C)=O	3.7 µg/mL (inactive) (≈ 11.3 µM)
O=c1c2ccccc2[se]n1-c1ccccc1	7.2 µg/mL (inactive) (≈ 26.3 µM)
Cc1ccc(NC(=O)CCC(=O)N/N=C/c2ccc([N+](=O)[O-])o2)cc1C	0.43 µg/mL (inactive) (≈ 1.2 µM)
Cc1ccc(S(=O)(=O)NCc2ccc(C(=O)NCCN(Cc3ccccc3)C(C)C)cc2)cc1	18.6 µg/mL (≈ 38.8 µM)
Cc1cccc(-n2cnc3cc(C(=O)N4CCCCC4)ccc32)c1	26.3 µg/mL (≈ 82.3 µM)
COc1ccc(CSc2nc(C)cc(=O)[nH]2)cc1	> 26 µg/mL
Oc1cc(O)cc(/C=C/c2ccc(O)c(O)c2)c1	6.5 µg/mL (inactive) (≈ 26.6 µM)
CN1CSC(=S)N(C)C1	> 16 µg/mL
CCCN(CCC)CCNC(=O)C1CCN(Cc2nc(-c3ccc(Cl)cc3)oc2C)CC1	> 46 µg/mL
COc1ccc(S(=O)(=O)n2nc(OC(=O)c3ccccc3)cc2N)cc1	1.1 µg/mL (inactive) (≈ 2.95 µM)
O=c1[nH]c(SCc2ccc(Cl)cc2)nc2c1CCC2	0.62 µg/mL (inactive) (≈ 2.12 µM)
CCCc1nc2c(=O)n(C)c(=O)nc-2n(C)n1	> 23 µg/mL
CCOc1ccc(-c2nc(-c3ccncc3)no2)cc1OCC	0.77 µg/mL (inactive) (≈ 2.47 µM)
Cc1ccc(C)c(OCCn2cc(C(=O)O)c3ccccc32)c1	25.1 µg/mL (≈ 81.1 µM)
O=C(O)c1ccccc1OCc1ccccc1Br	> 30 µg/mL
O=C1NCCCc2c1oc1ccc(O)cc21	16.8 µg/mL (≈ 77.3 µM)
CN(C)C1=C(Cl)C(=O)N(c2ccc(Cl)c(Cl)c2)C1=O	< 0.01 µg/mL (inactive)
CN(C)c1oc(-c2ccc(OCc3ccc(Cl)cc3)cc2)nc1C#N	0.03 µg/mL (inactive) (≈ 0.0848 µM)

SMILES	solubility
CC(=O)c1ccc(N2CCN(S(=O)(=O)c3ccc4c(c3)CC(=O)N4)CC2)cc1	3 µg/mL (inactive) (≈ 7.51 µM)
C=CCn1c(SCC(=O)c2ccc(O)c(O)c2)nnc1-c1ccccc1OC	26 µg/mL (≈ 65.4 µM)
COc1ccc(C2c3c(ncn(CCN4CCOCC4)c3=N)Oc3ccc4ccccc4c32)cc1OC (centres undefined)	35.4 µg/mL (≈ 71 µM)
CS(=O)(=O)c1ccc(C(=O)OCC(=O)NC23CC4CC(CC(C4)C2)C3)cc1[N+](=O)[O-]	4.8 µg/mL (inactive) (≈ 11 µM)
COc1ccc(OC)c(S(=O)(=O)Nc2cnc3ccccc3c2)c1	25.6 µg/mL (≈ 74.3 µM)
Cc1ccc(NS(=O)(=O)c2ccc3c(c2)CCC(=O)N3)cc1C	24.4 µg/mL (≈ 73.8 µM)
O=C1CCCC2=C1C1(CCCC1)N=C(Nc1nc3ccccc3o1)N2	0.13 µg/mL (inactive) (≈ 0.386 µM)
O=C1C2CC=CCC2C(=O)N1c1n[nH]c(-c2ccccc2)n1 (centres undefined)	> 29 µg/mL
COc1ccc(Sc2ccc(NC(=O)c3ccccc3Cl)cc2C#N)cc1	< 0.01 µg/mL (inactive)
Cc1ccnc(NC(=O)CCCOc2cc(=O)n(C)c3ccccc23)c1	8.3 µg/mL (inactive) (≈ 23.6 µM)
COc1ccc(CNCc2cccc3ccccc23)cc1	29.6 µg/mL (≈ 107 µM)
O=c1oc2c(O)c(O)cc3c(=O)oc4c(O)c(O)cc1c4c23	> 30 µg/mL
O=C(CSc1cccc2cccnc12)N1CCCC1	> 27 µg/mL
CC1CCCN(C(C(=O)Nc2ccc3c(c2)OCCO3)c2ccccc2)C1 (centres undefined)	5.2 µg/mL (inactive) (≈ 14.2 µM)
COc1ccc(OC)c(-c2nnc3n2N=C(c2ccc(OC)c(OC)c2)CS3)c1	26.8 µg/mL (≈ 65 µM)
CCOc1ccc(NC(=S)N2CCC(C(O)(c3ccccc3)c3ccccc3)CC2)cc1	0.92 µg/mL (inactive) (≈ 2.06 µM)
CC(C)C(=O)NC(c1ccco1)c1ccc2cccnc2c1O (centres undefined)	3.3 µg/mL (inactive) (≈ 10.6 µM)
CC(C)(C)OC(=O)NCCc1nnc(S(=O)(=O)Cc2ccc(Cl)cc2Cl)o1	5.8 µg/mL (inactive) (≈ 13.3 µM)
Cc1ccc(N2CCN(S(=O)(=O)N3CCCCC3)CC2)c(C)c1	1.4 µg/mL (inactive) (≈ 4.15 µM)
O=C(O)c1cccnc1SCCc1ccccc1	> 26 µg/mL
O=C(O)c1ccc(N2C(=O)/C(=C/c3ccc(-c4ccc([N+](=O)[O-])cc4)o3)C=C2c2ccccc2)cc1	0.92 µg/mL (inactive) (≈ 1.92 µM)
N#Cc1ccccc1CSc1nc2ncc(Br)cc2[nH]1	0.42 µg/mL (inactive) (≈ 1.22 µM)
O=C(CCNS(=O)(=O)c1cccc2nsnc12)N1CCN(c2ccccn2)CC1	> 43 µg/mL

SMILES	solubility
Cc1cc(C)nc(-n2nc(C)c(Sc3ccc(F)cc3)c2N)n1	4.8 µg/mL (inactive) (≈ 14.6 µM)
Cc1ccc(-n2c(N)c(C#N)c(-c3ccccc3)c(C#N)c2=O)cc1	0.83 µg/mL (inactive) (≈ 2.54 µM)
Cc1ccccc1N1CCN(c2ncnc3c2cnn3Cc2ccc(Cl)cc2)CC1	0.01 µg/mL (inactive) (≈ 0.0239 µM)
COc1cccc(-c2nc(-c3ccc(NC(=O)Cc4ccccc4OC)cc3)no2)c1	0.04 µg/mL (inactive) (≈ 0.0963 µM)
Cc1nc(SCc2nc3ccccc3[nH]2)c2oc3ccccc3c2n1	0.15 µg/mL (inactive) (≈ 0.433 µM)
CCCn1ncc(CN2CCCC(C(=O)c3cccc(OC(C)C)c3)C2)c1C (centres undefined)	29.6 µg/mL (≈ 77.2 µM)
COc1cc(NC(=O)c2cc(C3CC3)on2)c(OC)cc1Cl	< 0.01 µg/mL (inactive)
O=C(COc1ccccc1Br)NCCc1nc2ccccc2[nH]1	29.4 µg/mL (≈ 78.6 µM)
O=C(c1ccccn1)N(Cc1cccs1)C1(C(=O)NC2CCCCC2)CCCCC1	7.3 µg/mL (inactive) (≈ 17.2 µM)
Cc1ccc(S(=O)(=O)n2c(N)nc3ccccc32)cc1	1.8 µg/mL (inactive) (≈ 6.26 µM)
O=S1(=O)Nc2c(ccc3cccnc23)-c2ccccc21	> 28 µg/mL
CCc1oc2ccccc2c1C(=O)c1cc(Br)c(O)c(Br)c1	> 42 µg/mL
COc1ccc(C2CC(c3ccccc3)=NN2c2ccc(S(N)(=O)=O)cc2)cc1 (centres undefined)	0.02 µg/mL (inactive) (≈ 0.0491 µM)
Cc1ccc(S(=O)(=O)C(c2ccccc2)c2c(C)noc2C)cc1 (centres undefined)	17.9 µg/mL (≈ 52.4 µM)
CCCC(=O)Nc1cccc(NC(=O)c2ccccc2Br)c1	> 36 µg/mL
Cc1cc(C)n(-c2nc(NCCCO)c3c4c(sc3n2)CCCC4)n1	17.1 µg/mL (≈ 47.8 µM)
O=[N+]([O-])c1ccc(CN2CCOCCOCCN(Cc3ccc([N+](=O)[O-])cc3)CCOCC2)cc1	21.7 µg/mL (≈ 44.4 µM)
c1ccc(CC2CCN(c3ncnc4sccc34)CC2)cc1	0.03 µg/mL (inactive) (≈ 0.0969 µM)
Cc1ccc(C)c(NS(=O)(=O)c2cc(C(=O)Nc3ccccc3-c3ccccc3)ccc2Cl)c1	0.43 µg/mL (inactive) (≈ 0.876 µM)
Cc1cc2c(s1)c1cnn(Cc3ccccc3F)c(=O)c1n2C	0.08 µg/mL (inactive) (≈ 0.244 µM)

Reference: PubChem BioAssay AID624321 (Sanford-Burnham Center for Chemical Genomics, 2012)
